Data reported in patent US20250144067A1, “PERSONALIZED STARVATION THERAPY FOR CANCER” (Faeth Therapeutics, Inc., priority 2021, published 2025).
Counter-ions that a name gives are not always drawn.

The compounds below were run on NCI-H292 lung cancer cells (assay: FDA drug screening, complete media vs cholesterol-free media with simvastatin (TABLE 2)). Settings: NCI-H292 cells, FDA library drug in cholesterol-free media with simvastatin 0.04 μM.
Type: cell-based, human
OC[C@H]1O[C@@](CO)(O[C@H]2O[C@H](CO)[C@@H](O)[C@H](O)[C@H]2O)[C@@H](O)[C@@H]1O [Sucrose] was tested, and the “Cholesterol-free media + simvastatin (0.04 μM)” value was 1.867.

Same assay, conditions: NCI-H292 cells, FDA library drug in complete media
In the case of OC[C@H]1O[C@@](CO)(O[C@H]2O[C@H](CO)[C@@H](O)[C@H](O)[C@H]2O)[C@@H](O)[C@@H]1O [Sucrose], the “Complete Media” value is reported as 0.9772.

Same assay, conditions: NCI-H292 cells, cholesterol-free media with simvastatin 0.04 μM; FDA drug library screen (TABLE 2)
With Cc1cc(S(=O)(=O)O)c2c(C)ccc(C(C)C)cc1-2 [Sodium gualenate] the “Cholesterol-free media + simvastatin (0.04 μM)” value was 0.8796.
With CC(C)=CCOc1ccc(/C=C/C(=O)c2ccc(OCC=C(C)C)cc2OCC(=O)O)cc1 [Sofalcone] the “Cholesterol-free media + simvastatin (0.04 μM)” value was 0.8486.
With CC(C)OC(=O)[C@H](C)N[P@](=O)(OC[C@H]1O[C@@H](n2ccc(=O)[nH]c2=O)[C@](C)(F)[C@@H]1O)Oc1ccccc1 [Sofosbuvir] the “Cholesterol-free media + simvastatin (0.04 μM)” value was 0.9955.
CN[C@@H]1[C@H](O)[C@H](NC)[C@H]2O[C@@]3(O)C(=O)C[C@@H](C)O[C@H]3O[C@@H]2[C@H]1O [Spectinomycin (dihydrochloride)] was tested, and the “Cholesterol-free media + simvastatin (0.04 μM)” value was 1.126.
With CC(C)(C)C(O)/C=C/c1ccc2c(c1)OCO2 (stereo not drawn) [Stiripentol] the “Cholesterol-free media + simvastatin (0.04 μM)” value was 0.9313.
With O=C(O)CCC(=O)O [Succinic acid] the “Cholesterol-free media + simvastatin (0.04 μM)” value was 1.729.

Same assay, conditions: NCI-H292 cells, complete media; FDA drug library screen (TABLE 2)
Cc1cc(S(=O)(=O)O)c2c(C)ccc(C(C)C)cc1-2 [Sodium gualenate] was tested, and the “Complete Media” value was 0.8094.
CC(C)=CCOc1ccc(/C=C/C(=O)c2ccc(OCC=C(C)C)cc2OCC(=O)O)cc1 [Sofalcone] was tested, and the “Complete Media” value was 0.7952.
For CC(C)OC(=O)[C@H](C)N[P@](=O)(OC[C@H]1O[C@@H](n2ccc(=O)[nH]c2=O)[C@](C)(F)[C@@H]1O)Oc1ccccc1 [Sofosbuvir], the “Complete Media” value was 0.9628.
With CN[C@@H]1[C@H](O)[C@H](NC)[C@H]2O[C@@]3(O)C(=O)C[C@@H](C)O[C@H]3O[C@@H]2[C@H]1O [Spectinomycin (dihydrochloride)] the “Complete Media” value was 1.142.
In the case of CC(C)(C)C(O)/C=C/c1ccc2c(c1)OCO2 (stereo not drawn) [Stiripentol], the “Complete Media” value is reported as 0.8754.
For O=C(O)CCC(=O)O [Succinic acid], the “Complete Media” value was 1.686.

Same assay, conditions: complete media minus cholesterol-free media + simvastatin (0.04 μM); >0 enhanced anti-cancer activity, about 0 neutral, <0 antagonist
Compound Cc1cc(S(=O)(=O)O)c2c(C)ccc(C(C)C)cc1-2 [Sodium gualenate] has a Difference of −0.07.
Compound CC(C)=CCOc1ccc(/C=C/C(=O)c2ccc(OCC=C(C)C)cc2OCC(=O)O)cc1 [Sofalcone] has a Difference of −0.05.
CN[C@@H]1[C@H](O)[C@H](NC)[C@H]2O[C@@]3(O)C(=O)C[C@@H](C)O[C@H]3O[C@@H]2[C@H]1O [Spectinomycin (dihydrochloride)] was tested, and the Difference was 0.02.
CC(C)(C)C(O)/C=C/c1ccc2c(c1)OCO2 (stereo not drawn) [Stiripentol] showed a Difference of −0.06.
O=C(O)CCC(=O)O [Succinic acid] showed a Difference of −0.04.

Same assay, conditions: complete media minus cholesterol-free media + simvastatin (0.04 μM); […]
CC(C)OC(=O)[C@H](C)N[P@](=O)(OC[C@H]1O[C@@H](n2ccc(=O)[nH]c2=O)[C@](C)(F)[C@@H]1O)Oc1ccccc1 [Sofosbuvir] was tested, and the Difference was −0.03.

Same assay, conditions: complete media vs cholesterol-free media + simvastatin (0.04 μM); >0 enhanced anti-cancer activity, about 0 neutral, <0 antagonist
OC[C@H]1O[C@@](CO)(O[C@H]2O[C@H](CO)[C@@H](O)[C@H](O)[C@H]2O)[C@@H](O)[C@@H]1O [Sucrose] showed a Difference of −0.89.

What follows are compounds tested on NCI-H292 lung cancer cells (assay: FDA drug screening, complete media vs cholesterol-free media without statin (TABLE 1)). Settings: Complete minus Cholesterol-free; >0 enhanced anti-cancer activity, about 0 neutral, <0 antagonist.
Type: cell-based, human
Compound CC(C)(C)C(O)/C=C/c1ccc2c(c1)OCO2 (stereo not drawn) [Stiripentol] has a Difference of 0.02.

Same assay, conditions: Complete minus Cholesterol-free; greater than 0 enhanced anti-cancer activity, about 0 neutral, below 0 antagonist
Work on Cc1cc(S(=O)(=O)O)c2c(C)ccc(C(C)C)cc1-2 [Sodium gualenate] yielded a Difference of −0.12.
In the case of CC(C)=CCOc1ccc(/C=C/C(=O)c2ccc(OCC=C(C)C)cc2OCC(=O)O)cc1 [Sofalcone], the Difference is reported as −0.07.

Same assay, conditions: Complete minus Cholesterol-free; greater than 0 enhanced anti-cancer activity, about 0 neutral, below 0 antagonists
Work on OC[C@H]1O[C@@](CO)(O[C@H]2O[C@H](CO)[C@@H](O)[C@H](O)[C@H]2O)[C@@H](O)[C@@H]1O [Sucrose] yielded a Difference of −0.74.

Same assay, conditions: NCI-H292 cells in cholesterol-free media without statin
OC[C@H]1O[C@@](CO)(O[C@H]2O[C@H](CO)[C@@H](O)[C@H](O)[C@H]2O)[C@@H](O)[C@@H]1O [Sucrose] was tested, and the Cholesterol-free was 1.582.

Same assay, conditions: NCI-H292 cells in complete media
Work on OC[C@H]1O[C@@](CO)(O[C@H]2O[C@H](CO)[C@@H](O)[C@H](O)[C@H]2O)[C@@H](O)[C@@H]1O [Sucrose] yielded a Complete of 0.843.

Same assay, conditions: NCI-H292 cells, FDA drug library screen, cholesterol-free media without statin
Work on Cc1cc(S(=O)(=O)O)c2c(C)ccc(C(C)C)cc1-2 [Sodium gualenate] yielded a Cholesterol-free of 0.9704.
CC(C)=CCOc1ccc(/C=C/C(=O)c2ccc(OCC=C(C)C)cc2OCC(=O)O)cc1 [Sofalcone] showed a Cholesterol-free of 0.9203.

Same assay, conditions: NCI-H292 cells, FDA drug library screen, complete media
Compound Cc1cc(S(=O)(=O)O)c2c(C)ccc(C(C)C)cc1-2 [Sodium gualenate] has a Complete of 0.8542.
For CC(C)=CCOc1ccc(/C=C/C(=O)c2ccc(OCC=C(C)C)cc2OCC(=O)O)cc1 [Sofalcone], the Complete was 0.8453.

Same assay, conditions: NCI-H292 cells, cholesterol-free media without statin
CC(C)OC(=O)[C@H](C)N[P@](=O)(OC[C@H]1O[C@@H](n2ccc(=O)[nH]c2=O)[C@](C)(F)[C@@H]1O)Oc1ccccc1 [Sofosbuvir] was tested, and the Cholesterol-free was 1.138.

Same assay, conditions: NCI-H292 cells, cholesterol-free media without statin, FDA drug library screen
CN[C@@H]1[C@H](O)[C@H](NC)[C@H]2O[C@@]3(O)C(=O)C[C@@H](C)O[C@H]3O[C@@H]2[C@H]1O [Spectinomycin (dihydrochloride)] showed a Cholesterol-free of 0.9841.
For CC(C)(C)C(O)/C=C/c1ccc2c(c1)OCO2 (stereo not drawn) [Stiripentol], the Cholesterol-free was 0.9226.
O=C(O)CCC(=O)O [Succinic acid] showed a Cholesterol-free of 0.9807.

Same assay, conditions: NCI-H292 cells, complete media
Work on CC(C)OC(=O)[C@H](C)N[P@](=O)(OC[C@H]1O[C@@H](n2ccc(=O)[nH]c2=O)[C@](C)(F)[C@@H]1O)Oc1ccccc1 [Sofosbuvir] yielded a Complete of 0.6875.

Same assay, conditions: NCI-H292 cells, complete media, FDA drug library screen
CN[C@@H]1[C@H](O)[C@H](NC)[C@H]2O[C@@]3(O)C(=O)C[C@@H](C)O[C@H]3O[C@@H]2[C@H]1O [Spectinomycin (dihydrochloride)] was tested, and the Complete was 1.077.
In the case of CC(C)(C)C(O)/C=C/c1ccc2c(c1)OCO2 (stereo not drawn) [Stiripentol], the Complete is reported as 0.9415.
In the case of O=C(O)CCC(=O)O [Succinic acid], the Complete is reported as 1.143.

Same assay, conditions: complete vs cholesterol-free media; >0 enhanced anti-cancer activity, about 0 neutral, <0 antagonist
Work on CN[C@@H]1[C@H](O)[C@H](NC)[C@H]2O[C@@]3(O)C(=O)C[C@@H](C)O[C@H]3O[C@@H]2[C@H]1O [Spectinomycin (dihydrochloride)] yielded a Difference of 0.09.
O=C(O)CCC(=O)O [Succinic acid] was tested, and the Difference was 0.16.

Same assay, conditions: complete vs cholesterol-free media; […]
Compound CC(C)OC(=O)[C@H](C)N[P@](=O)(OC[C@H]1O[C@@H](n2ccc(=O)[nH]c2=O)[C@](C)(F)[C@@H]1O)Oc1ccccc1 [Sofosbuvir] has a Difference of −0.45.
